Test results taken from patent EP0345356A1, “PLATINUM COMPLEX AND THERAPEUTIC AGENT FOR MALIGNANT TUMOR” (TORAY INDUSTRIES, INC., priority 1987, dated 1989).
Values joined by “and” are separate entries in the source; they are usually repeats but may differ in a detail not shown here. Identical values can stand only once.

What was measured:
[1] = tested on: L1210 murine leukemia cells; assay: Antitumor activity against L1210 leukemia in mice; type: in vivo, CDF1 mice; settings: for Survival days (mean ± SD) / T/C (%): given on 1st, 5th and 9th days after tumor inoculation; for Survival rate: number of 30 days survival mice / group
Method: L1210 murine leukemia cells which were subcultured in DBA/2 mouse were inoculated intraperitoneally into CDF1 mice at 10^5 cells/mouse. Each experimental group was composed of 6-10 mice (male, 6-weeks old). Each test compound was administered three times, i.e., on the 1st, 5th and 9th days after tumor inoculation. […] Each compound was dissolved or suspended in 0.05% "Tween 80" solution and administered in mice.

Slc:ICR mice = assay: Acute toxicity test in mice (LD50, Miller-Tainter method); type: in vivo; settings: intraperitoneal, Slc:ICR mice (male), death rate on the 14th day
Method: Platinum complexes to be tested was administered intraperitoneally to Slc:ICR mice (male, 5 weeks old, 6 mice/group). Each complex was used in the form of a solution or suspension in a 0.05% "Tween 80" in saline. The LD50 value was calculated by the Miller-Tainter method from the death rate on the 14th day from the date of the administration.

Row | SMILES | Survival days (mean ± SD) ([1]; Dose 1 mg/kg) | T/C (%) ([1]; Dose 1 mg/kg) | Survival rate ([1]; Dose 1 mg/kg) | Survival days (mean ± SD) ([1]; Dose 10 mg/kg) | T/C (%) ([1]; Dose 10 mg/kg) | Survival rate ([1]; Dose 10 mg/kg) | Survival days (mean ± SD) ([1]; Dose 25 mg/kg) | T/C (%) ([1]; Dose 25 mg/kg) | Survival rate ([1]; Dose 25 mg/kg) | Survival days (mean ± SD) ([1]; Dose 50 mg/kg) | T/C (%) ([1]; Dose 50 mg/kg) | Survival rate ([1]; Dose 50 mg/kg) | Survival days (mean ± SD) ([1]; Dose 100 mg/kg) | T/C (%) ([1]; Dose 100 mg/kg) | Survival rate ([1]; Dose 100 mg/kg) | Survival days (mean ± SD) ([1]; Dose 200 mg/kg) | T/C (%) ([1]; Dose 200 mg/kg) | Survival rate ([1]; Dose 200 mg/kg) | LD50 values (Slc:ICR mice) | further results
1 | NC1CCCCC1N.O=C([O-])c1cc2ccccc2[nH]1.O=C([O-])c1cc2ccccc2[nH]1.[Pt+2] [XXIII-1, Bis(indole-2-carboxylato)(trans-ℓ-dach)platinum(II)] | 8.5 ± 0.8 days | 102% | 0/6 | 10.5 ± 1.0 days | 127% | 0/6 | 15.0 ± 5.4 days | 181% | 0/6 | 18.7 ± 9.2 days | 225% | 1/6 | 21.2 ± 7.9 days | 255% | 2/6 | 8.2 ± 1.9 days | 99% | 0/6 | 180 mg/kg | 
2 | NC1CCCCC1N.O=C([O-])c1ccc(=O)oc1.O=C([O-])c1ccc(=O)oc1.[Pt+2] [XXII-1, bis(2-pyrone-5-carboxylato)(trans-ℓ-dach)platinum(II)] |  |  | 0/6 |  |  |  |  |  |  |  |  | 0/6 |  |  |  |  |  | 0/6 | >200 mg/kg | Survival days (mean ± SD) ([1]; Dose 1 mg/kg, 1 mg/kg): 9.0 ± 0.9 days and 11.3 ± 0.8 days; T/C (%) ([1]; Dose 1 mg/kg, 1 mg/kg): 108% and 140%; Survival rate ([1]; Dose 10 mg/kg, 10 mg/kg): 0/6 and 2/6; Survival rate ([1]; Dose 25 mg/kg, 25 mg/kg): 0/6 and 3/6; Survival days (mean ± SD) ([1]; Dose 50 mg/kg, 50 mg/kg): 15.2 ± 3.1 days and 17.8 ± 2.8 days; T/C (%) ([1]; Dose 50 mg/kg, 50 mg/kg): 183% and 220%; Survival days (mean ± SD) ([1]; Dose 100 mg/kg, 100 mg/kg): 20.7 ± 7.2 days and 12.3 ± 2.7 days; T/C (%) ([1]; Dose 100 mg/kg, 100 mg/kg): 249% and 152%; Survival rate ([1]; Dose 100 mg/kg, 100 mg/kg): 1/6 and 0/6
3 | CC(=O)N1c2ccccc2CC1C(=O)[O-].CC(=O)N1c2ccccc2CC1C(=O)[O-].NC1CCCCC1N.[Pt+2] (racemic) [XXIII-2, Bis(DL-1-acetylindoline-2-carboxylato)(trans-ℓ-dach)platinum(II)] | 8.3 ± 0.5 days | 102% | 0/6 | 12.7 ± 8.6 days | 157% | 1/6 | 14.2 ± 3.3 days | 175% | 0/6 | 13.3 ± 6.1 days | 164% | 0/6 | 22.2 ± 9.0 days | 274% | 3/6 | 14.0 ± 2.4 days | 173% | 0/6 | >200 mg/kg | 
